According to patent US4897382A, “Organic amide compounds derived from nitrogenous lipids” (priority 1981, dated 1990):

Assays:
[1] = background statement; cited from earlier work
[2] = mice; cited from earlier work
[3] = Anticonvulsant effects in rat (isoniazide convulsions); format: in vivo
Protocol: The in vivo activity of Product 1 was measured by the method described by Costa et al (E. Costa, A. Guidotti and C. C. Mao; "Evidence for involvement of GABA in the Action of Benzodiazepines: Studies in Rat Cerebellum" in Mechanism of Action of Benzodiazepines; Ed. by E. Costa and P. Greengard, New York, Raven Press. pp. 113-130 (1975)) and by Loescher and Frey (Loesher, W. and Frey, H. H.; "Effect of convulsant and anticonvulsant agents on level and metabolism of gamma-aminobutyric acid in mouse brain"; Naunyn-Schmiedeberg's Arch. Pharmacol. 296, 263-269 (1977)). These tests are based on the known activity of isoniazide to cause convulsions and a lowering of the GABA cerebral levels and the glutamic-decarboxylase enzyme activity.

[4] = GABA by itself; cited from earlier work
[5] = test system: synaptic membranes of the rat cortex; assay: Binding of ^3H-GABA on synaptic membranes of the rat cortex (method of Enna and Snyder); details: for Product bound % (^3H-GABA binding on rat cortex membranes): ^3H-GABA 2.10^-8 M
From the text: Table I presents the results of these tests, expressed in percentage of the fixed active product, comparing the in vitro activity of Product 1 with the activities of the individual components which comprise Product 1.

[6] = General pharmacological activity in vitro and in vivo; details: tested in vitro and in vivo in laboratory animals
[7] = isoniazide 160 mg/kg (s.c.) + GABA 8 mg/kg (i.p.)
[8] = test substance 10^-8 M, 0.01 µM
[9] = isoniazide 160 mg/kg (s.c.) + Product 1 20 mg/kg (i.p.)

SMILES | in vitro / in vivo activity, in words [1] | effect when administered in vivo as measured by convulsion tests [2] | Latency of the convulsions measured [3, 7] [s] | Number of animals in convulsions [3, 7] | Number of dead animals [3, 7] | penetration of the encephalic barrier, in words [4] | Product bound % (^3H-GABA binding on rat cortex membranes) ([5]; test substance 10^-4 M, 100 µM) [%] | Product bound % (^3H-GABA binding on rat cortex membranes) ([5]; test substance 10^-5 M, 10 µM) [%] | Product bound % (^3H-GABA binding on rat cortex membranes) ([5]; test substance 10^-6 M, 1 µM) [%] | Product bound % (^3H-GABA binding on rat cortex membranes) ([5]; test substance 10^-7 M, 0.1 µM) [%] | Product bound % (^3H-GABA binding on rat cortex membranes) [5, 8] [%] | in vitro biological activity (GABA binding), in words ([5]; summary of Table I) | action in the central nervous system, in words [6] | in vivo (anticonvulsant) activity, in words ([3]; compared to GABA or sphingosine alone) | Latency of the convulsions measured [3, 9] [s] | Number of animals in convulsions [3, 9] | Number of dead animals [3, 9]
NCCCC(=O)O [GABA, Gamma-aminobutyric acid] | active in vitro but relatively inactive in vivo | ineffective | 3100 ± 156 | 24/30 | 14 | incapable, by itself, of penetrating the encephalic barrier | 20 | 20 | 25 | 45 | 90 | activity comparable to that of Product 1 |  |  |  |  | 
CCCCCCCCCCCCCC=CC(O)C(CO)NC(=O)CCCN (stereo not shown) [Product 1, Gamma-aminobutyrylsphingosine amide] |  |  |  |  |  |  | 20 | 25 | 40 | 60 | 95 |  | capable of acting directly in the central nervous system | far superior in vivo activity as compared to GABA or sphingosine alone | 4500 ± 330 | 9/30 | 3
